According to patent publication US20240199647A1, “ANTI-VIRAL COMPOUNDS” (Aligos Therapeutics, Inc., priority 2022, published 2024):
pEC50, pIC50: −log10 of the molar value. Where two headings read alike, the source gives them in different places.

Assays:
[1] = system: human beta-coronavirus OC43; assay: OC43 Coronavirus Assay in HeLa cells (antiviral, cytopathic effect, cell-titer-glo); assay type: cell-based; conditions: Betacoronavirus 1, OC43, HeLa, Table B, OC43 coronavirus in HeLa cells, read-out: EC50
[2] = target: SARS-Cov-2 3CLpro (Severe acute respiratory syndrome coronavirus 2, UniProt P0DTD1); assay: biochemical; conditions: Table A, class symbols, read-out: SARS-Cov-2 (IC50)
[3] = in vitro; conditions: human
[4] = system: SARS-CoV-2 B.1.1.7 lineage; assay: microbe, parasite or virus in culture; assay type: cell-based; conditions: Severe acute respiratory syndrome coronavirus 2, Table C, SARS-CoV-2 B.1.1.7 in A549-dual_ACE2_TMPRSS2 cells, read-out: A549-dual_ACE2_TMPRSS2 (EC50)
[5] = Cytotoxicity in HeLa cells without addition of OC43 virus (in parallel); conditions: human, HeLa cells, without OC43 virus

CC(C)C[C@@H](C(=O)N1C[C@@]2(C[C@H]1C#N)Oc1ccncc1NC2=O)N(C)C(=O)c1cc2c(F)cc(F)cc2[nH]1 [Example 3, N—((S)-1-((2R,5'S)-5′-cyano-3-oxo-3,4-dihydrospiro[pyrido[4,3-b][1,4]oxazine-2,3′-pyrrolidin]-1′-yl)-4-methyl-1-oxopentan-2-yl)-4,6-difluoro-N-methyl-1H-indole-2-carboxamide]
pEC50 ([1]; cells given as a bound): < 6.00 | pIC50 [2]: 6.70 to 7.70 | CC50 [3]: > 1 µM | pEC50 ([4]; class symbols): 5.00 to 6.00 | CC50 at 6 days [5]: > 10 µM

CC(C)C[C@@H](C(=O)N1C[C@@]2(C[C@H]1C#N)OCc1ccccc1NC2=O)N(C)C(=O)c1cc2c(F)cc(F)cc2[nH]1 [Example 4, N—((S)-1-((3R,5'S)-5′-cyano-2-oxo-1,5-dihydro-2H-spiro[benzo[e][1,4]oxazepine-3,3′-pyrrolidin]-1′-yl)-4-methyl-1-oxopentan-2-yl)-4,6-difluoro-N-methyl-1H-indole-2-carboxamide]
pEC50 ([1]; cells given as a bound): < 6.00 | pIC50 [2]: 6.70 to 7.70 | CC50 [3]: > 1 µM | pEC50 ([4]; class symbols): 5.00 to 6.00 | CC50 at 6 days [5]: > 10 µM

CC(C)C[C@@H](C(=O)N1C[C@]2(C[C@H]1C#N)OC(=O)Nc1ccccc12)N(C)C(=O)c1cc2c(F)cc(F)cc2[nH]1 [Example 5, N—((S)-1-((4R,5'S)-5′-cyano-2-oxo-1,2-dihydrospiro[benzo[d][1,3]oxazine-4,3′-pyrrolidin]-1′-yl)-4-methyl-1-oxopentan-2-yl)-4,6-difluoro-N-methyl-1H-indole-2-carboxamide]
pEC50 ([1]; cells given as a bound): < 6.00 | pIC50 [2]: 5.70 to 6.70 | CC50 [3]: > 1 µM | pEC50 ([4]; class symbols): 5.00 to 6.00 | CC50 at 6 days [5]: > 10 µM

CC(C)C[C@@H](C(=O)N1C[C@@]2(C[C@H]1C#N)N=C(c1ccccc1)NC2=O)N(C)C(=O)c1cc2c(F)cc(F)cc2[nH]1 [Example 6, N-[(2S)-1-[(5R,8S)-8-cyano-4-oxo-2-phenyl-1,3,7-triazaspiro[4.4]non-1-en-7-yl]-4-methyl-1-oxopentan-2-yl]-4,6-difluoro-N-methyl-1H-indole-2-carboxamide]
pEC50 ([1]; class symbols): 6.00 to 7.00 | pIC50 [2]: > 7.70 | CC50 [3]: > 1 µM | pEC50 ([4]; class symbols): 6.00 to 7.00 | CC50 at 6 days [5]: > 10 µM

CC(C)C[C@@H](C(=O)N1C[C@]2(C[C@H]1C#N)C(=O)Nc1c3ccccc3nn12)N(C)C(=O)[C@H](C)NC(=O)C(F)(F)F [Example 27, (2S)—N-[(2S)-1-[(3R,5'S)-5′-cyano-2-oxo-1H-spiro[imidazo[1,2-b]indazole-3,3′-pyrrolidin]-1′-yl]-4-methyl-1-oxopentan-2-yl]-N-methyl-2-(2,2,2-trifluoroacetamido)propanamide]
pEC50 ([1]; class symbols): 5.00 to 6.00 | pIC50 [2]: 6.70 to 7.70 | CC50 [3]: > 1 µM | pEC50 ([4]; cells given as a bound): < 6.00 | CC50 at 6 days [5]: > 10 µM

CC(C)C[C@@H](C(=O)N1C[C@]2(CC(c3ccccc3)=NNC2=O)C[C@H]1C#N)N(C)C(=O)[C@H](C)NC(=O)C(F)(F)F [Example 29, (S)—N—((S)-1-((3S,5R)-3-cyano-6-oxo-9-phenyl-2,7,8-triazaspiro[4.5]dec-8-en-2-yl)-4-methyl-1-oxopentan-2-yl)-N-methyl-2-(2,2,2-trifluoroacetamido)propanamide]
pEC50 ([1]; class symbols): 5.00 to 6.00 | pIC50 [2]: 6.70 to 7.70 | CC50 [3]: > 1 µM | pEC50 ([4]; class symbols): 6.00 to 7.00 | CC50 at 6 days [5]: > 10 µM

CC(C)C[C@@H](C(=O)N1C[C@]2(CC(c3ccccc3)=NNC2=O)C[C@H]1C#N)N(C)C(=O)c1cc2c(F)cc(F)c(F)c2[nH]1 [Example 30, N—((S)-1-((3S,5R)-3-cyano-6-oxo-9-phenyl-2,7,8-triazaspiro[4.5]dec-8-en-2-yl)-4-methyl-1-oxopentan-2-yl)-4,6,7-trifluoro-N-methyl-1H-indole-2-carboxamide]
pEC50 ([1]; class symbols): 6.00 to 7.00 | pIC50 [2]: > 7.70 | CC50 [3]: > 1 µM | pEC50 ([4]; class symbols): 6.00 to 7.00 | CC50 at 6 days [5]: > 10 µM

CN(C(=O)[C@H](CC1CC1)NC(=O)C(F)(F)F)[C@@H](CC1CC1)C(=O)N1C[C@]2(C[C@H]1C#N)C(=O)Nc1nccn12 [Example 31, (2S)—N-[(2S)-1-[(3R,5'S)-5′-cyano-2-oxo-1H-spiro[[1,3]diazolo[1,2-a]imidazole-3,3′-pyrrolidin]-1′-yl]-3-cyclopropyl-1-oxopropan-2-yl]-3-cyclopropyl-N-methyl-2-(2,2,2-trifluoroacetamido)propanamide]
pEC50 ([1]; cells given as a bound): < 5.00 | pIC50 [2]: 6.70 to 7.70 | CC50 [3]: > 1 µM | pEC50 ([4]; cells given as a bound): < 6.00 | CC50 at 6 days [5]: > 10 µM

CC(C)C[C@@H](C(=O)N1C[C@]2(Cc3ccccc3NC2=O)C[C@H]1C#N)N(C)C(=O)[C@H](C)NC(=O)C(F)(F)F [Example 32, (S)—N—((S)-1-((3S,5S)-5-cyano-2′-oxo-1′,4′-dihydro-2′H-spiro[pyrrolidine-3,3′-quinolin]-1-yl)-4-methyl-1-oxopentan-2-yl)-N-methyl-2-(2,2,2-trifluoroacetamido)propanamide]
pEC50 ([1]; class symbols): 5.00 to 6.00 | pIC50 [2]: > 7.70 | CC50 [3]: > 1 µM | pEC50 ([4]; class symbols): 6.00 to 7.00 | CC50 at 6 days [5]: > 10 µM

CN(C(=O)[C@H](CC1CC1)NC(=O)C(F)(F)F)[C@@H](CC1CC1)C(=O)N1C[C@@]2(C[C@H]1C#N)Oc1cc(C#N)cc(F)c1NC2=O [Example 34, (S)-3-cyclopropyl-N—((S)-3-cyclopropyl-1-((2R,5'S)-5′,7-dicyano-5-fluoro-3-oxo-3,4-dihydrospiro[benzo[b][1,4]oxazine-2,3′-pyrrolidin]-1′-yl)-1-oxopropan-2-yl)-N-methyl-2-(2,2,2-trifluoroacetamido)propanamide]
pEC50 ([1]; class symbols): 6.00 to 7.00 | pIC50 [2]: > 7.70 | CC50 [3]: > 1 µM | pEC50 ([4]; class symbols): 6.00 to 7.00 | CC50 at 6 days [5]: > 10 µM

CC(C)C[C@@H](C(=O)N1C[C@@]2(C[C@H]1C#N)Oc1cc(F)cc(F)c1NC2=O)N(C)C(=O)[C@H](CC1CC1)NC(=O)C(F)(F)F [Example 36, (S)—N—((S)-1-((2R,5'S)-5′-cyano-5,7-difluoro-3-oxo-3,4-dihydrospiro[benzo[b][1,4]oxazine-2,3′-pyrrolidin]-1′-yl)-4-methyl-1-oxopentan-2-yl)-3-cyclopropyl-N-methyl-2-(2,2,2-trifluoroacetamido)propanamide]
pEC50 ([1]; class symbols): > 7.00 | pIC50 [2]: > 7.70 | CC50 [3]: > 1 µM | pEC50 ([4]; class symbols): 6.00 to 7.00 | CC50 at 6 days [5]: > 10 µM

C[C@H](NC(=O)C(F)(F)F)C(=O)N(C)[C@@H](CC1CC1)C(=O)N1C[C@@]2(C[C@H]1C#N)Oc1cc(F)cc(F)c1NC2=O [Example 37, (S)—N—((S)-1-((2R,5'S)-5′-cyano-5,7-difluoro-3-oxo-3,4-dihydrospiro[benzo[b][1,4]oxazine-2,3′-pyrrolidin]-1′-yl)-3-cyclopropyl-1-oxopropan-2-yl)-N-methyl-2-(2,2,2-trifluoroacetamido)propanamide]
pEC50 ([1]; class symbols): > 7.00 | pIC50 [2]: > 7.70 | CC50 [3]: > 1 µM | pEC50 ([4]; class symbols): 6.00 to 7.00 | CC50 at 6 days [5]: > 10 µM

CC(C)C[C@@H](C(=O)N1C[C@]2(C[C@H]1C#N)C(=O)Nc1ccccc1N2C)N(C)C(=O)[C@H](C)NC(=O)C(F)(F)F [Example 42, (S)—N—((S)-1-((3R,5S)-5-cyano-1′-methyl-3′-oxo-3′,4′-dihydro-1′H-spiro[pyrrolidine-3,2′-quinoxalin]-1-yl)-4-methyl-1-oxopentan-2-yl)-N-methyl-2-(2,2,2-trifluoroacetamido) propanamide]
pEC50 ([1]; cells given as a bound): < 5.00 | pIC50 [2]: 6.70 to 7.70 | CC50 [3]: > 1 µM | pEC50 ([4]; class symbols): 6.00 to 7.00 | CC50 at 6 days [5]: > 10 µM

CC(C)C[C@@H](C(=O)N1C[C@]2(C[C@H]1C#N)C(=O)Nc1ccccc1C2(F)F)N(C)C(=O)[C@H](C)NC(=O)C(F)(F)F [Example 43, (S)—N—((S)-1-((3R,5S)-5-cyano-4′,4′-difluoro-2′-oxo-1′,4′-dihydro-2′H-spiro[pyrrolidine-3,3′-quinolin]-1-yl)-4-methyl-1-oxopentan-2-yl)-N-methyl-2-(2,2,2-trifluoroacetamido)propanamide]
pEC50 ([1]; class symbols): 5.00 to 6.00 | pIC50 [2]: 6.70 to 7.70 | CC50 [3]: > 1 µM | pEC50 ([4]; class symbols): 6.00 to 7.00 | CC50 at 6 days [5]: > 10 µM

Cc1cc2n(n1)[C@@]1(C[C@@H](C#N)N(C(=O)[C@H](CC(C)C)N(C)C(=O)[C@H](C)NC(=O)C(F)(F)F)C1)C(=O)N2 [Example 44, (S)—N—((S)-1-((3R,5'S)-5′-cyano-6-methyl-2-oxo-1,2-dihydrospiro[imidazo[1,2-b]pyrazole-3,3′-pyrrolidin]-1′-yl)-4-methyl-1-oxopentan-2-yl)-N-methyl-2-(2,2,2-trifluoroacetamido)propanamide]
pEC50 ([1]; class symbols): 6.00 to 7.00 | pIC50 [2]: 6.70 to 7.70 | CC50 [3]: > 1 µM | pEC50 ([4]; cells given as a bound): < 6.00 | CC50 at 6 days [5]: > 10 µM

CC(C)C[C@@H](C(=O)N1C[C@]2(C[C@H]1C#N)C(=O)Nc1ccnn12)N(C)C(=O)[C@H](C)NC(=O)C(F)(F)F [Example 45, (2S)—N-[(2S)-1-[(3R,5'S)-5′-cyano-2-oxo-1H-spiro[pyrazolo[1,5-a]imidazole-3,3′-pyrrolidin]-1′-yl]-4-methyl-1-oxopentan-2-yl]-N-methyl-2-(2,2,2-trifluoroacetamido)propanamide]
pEC50 ([1]; class symbols): 6.00 to 7.00 | pIC50 [2]: 6.70 to 7.70 | CC50 [3]: > 1 µM | pEC50 ([4]; cells given as a bound): < 6.00 | CC50 at 6 days [5]: > 10 µM

CC(C)C[C@@H](C(=O)N1C[C@]2(C[C@H]1C#N)C(=O)NCc1nccn12)N(C)C(=O)[C@H](C)NC(=O)C(F)(F)F [Example 46, (S)—N—((S)-1-((5R,5'S)-5′-cyano-6-oxo-7,8-dihydro-6H-spiro[imidazo[1,2-a]pyrazine-5,3′-pyrrolidin]-1′-yl)-4-methyl-1-oxopentan-2-yl)-N-methyl-2-(2,2,2-trifluoroacetamido)propanamide]
pEC50 ([1]; cells given as a bound): < 5.00 | pIC50 [2]: 6.70 to 7.70 | CC50 [3]: > 1 µM | pEC50 ([4]; cells given as a bound): < 6.00 | CC50 at 6 days [5]: > 10 µM
